# Molecular target: tyrosinase
# Assay: absorbance at […] nm, L-DOPA oxidation
# Type: biochemical
# Conditions: L-DOPA […] stock, […] phosphate, pH […] °C, […] min preincubation
compound,measurement,value
O=c1c(O)c(-c2ccc(O)c(O)c2)oc2cc(O)cc(O)c12 [Quercetin],Control (Quercetin) / IC50 (μg/mL)s,22.15 ± 0.12 µg/mL

# From article PMC11063393 (Heliyon, 2024)
